{
  "source": "patent US8945595B2",
  "about": "“Insect repellent and attractants” (The Regents of the University of California, priority 2009, dated 2015)",
  "test_system": "CO2-sensitive ab1C neurons",
  "test": "single-sensillum electrophysiology, inhibition of CO2 response of ab1C neurons",
  "type": "cell-based, Drosophila",
  "conditions": "for inhibition of CO2 response of ab1C neurons: 0.3% CO2 with varying concentrations of odourant, applied prior to or after CO2 stimulus; for silencing of CO2 neuron beyond the period of application: 2,3-butanedione at concentrations >=10^-1, 1-hexanol at the concentrations tested; for inhibition of CO2 response across tested CO2 concentrations: CO2 0.1% up to ~3%",
  "text": "Representative traces (top) and mean responses (bottom) from single-sensillum electrophysiology of ab1 sensilla in mutant flies; spikes represent activity of the ab1C neuron. a, 3-sec stimulus of odourant overlaid with a 1-sec application of 0.3% CO2. b, 3-sec stimulus of 0.3% CO2 overlaid with a 1-sec application of odourant. PO=paraffin oil, d4on=2,3-butanedione, 6ol=1-hexanol. n=6, error bars=s.e.m. Spikes per second were counted during the 1-sec stimulus period, and spontaneous activity subtracted. (For data in a and b, T-test, *P<0.001, **P<0.005, ***P<0.01, ****P<0.05) c, ab1C responses to indicated concentrations of CO2 in the presence of solvent (PO), 1-hexanol (6ol) or 2,3-butanedione (d4on). Odourants were tested at 10^−1 dilution. Firing rates were counted in consecutive 0.1-sec bins. n=3, error bars=s.e.m.\nBars indicate stimulus periods for 0.3% CO2, and overlays with 1-hexanol (6ol) or 2,3-butanedione (d4on) at the indicated concentrations. b, Recovery of ab1C responsiveness to a 0.5-sec, 0.3% CO2 stimulus applied every 30-sec after initial treatment with 3-sec stimulus of either d4on (10^−1) or paraffin oil (PO). n=5, error bars=s.e.m., (T-test, *P<0.005, **<0.01, ***P<0.05). c, CO2 response inhibition by structurally related compounds. A 3-sec stimulus of 0.3% CO2 was delivered in combination with 1-sec application of indicated odourant (10^−2) as in a. Percent increase or decrease in mean ab1C response was calculated relative to mean response of paraffin oil. n=5. d, Structures of CO2 and the 4 strongest antagonists. e-f, show mean odourant responses. e, Odourants were tested on ab1C neurons in Or83b2 flies at 10^−2 dilution in paraffin oil. Bars represent values after subtraction of mean response to paraffin oil. n=3. f, Odourants at indicated concentrations were tested on ab3A neuron in wild-type (wt) and ΔHalo (AH) mutants that lack Or22a and Or22b. Bars represent values after subtraction of spontaneous activity. n=5, error bars=s.e.m.\nFIG. 16 is a schematic diagram of an odour-delivery system to maintain steady concentration of CO2 in binary mixture experiments. Cartridges were made from Pasteur pipettes with pre-filled cotton wool inserts. […] odorant dissolved in paraffin oil (at specific concentrations) was applied to the cotton wool, and a 1.5 ml disposable tip attached to the open end to make the “odour cartridge”. A controlled “humidified air flow” was generated from a compressed air cylinder by bubbling through water, and passed through a glass tube, and released over the recording arena holding the Drosophila. A C-55 stimulus controller (Syntech) was used to generate an additional activated-charcoal filtered continuous air flow of 5 ml/sec which was delivered into the humidified airstream through a “blank cartridge” with the tip placed through a hole in the tube. To generate controlled odourant stimulus the C-55 stimulus controller was used to switch air flow from the “continuous air flow” to “odor stimulus flow” channel. An additional CO2 stimulus was pulsed through a separate system that delivered controlled pulses (variable 2.5 ml/sec-6.5 ml/sec) into the same humidified airstream, from either a 1%, 5% or 100% cylinder of CO2 (Airgas).\nExtracellular single-unit recordings were performed. Odourant stimuli were delivered via Pasteur pipette odour cartridges (see, FIG. 16). Chemicals were of the highest purity available, typically>99% (Sigma-Aldrich). All odourants were diluted in paraffin oil. A controlled volume of air 5 ml/sec was puffed through the odour cartridge containing vapours, and was delivered into a constant humidified airstream of 10 ml/sec that was passed over the fly antenna. […] CO2 stimulus was pulsed through a separate delivery system that delivered controlled pulses (variable 2.5 ml/sec-6.5 ml/sec) into the same humidified airstream, from either a 1%, 5% or 100% tank of CO2 (Airgas). […]",
  "data": [
    {"smiles": "CC(=O)C(C)=O", "note": "[2,3-butanedione]", "values": [
      {"measurement": "effect of order of presentation on strength of CO2 response inhibition", "setting": "0.3% CO2", "result": "of lesser consequence"},
      {"measurement": "inhibition of CO2 response of ab1C neurons", "result": "inhibited CO2 response in a dose-dependent manner"},
      {"measurement": "silencing of CO2 neuron beyond the period of application", "result": "silenced the CO2 neuron well beyond the period of application"},
      {"measurement": "CO2 response at 10 minutes versus neurons not pre-exposed", "setting": "after 3-second stimulus of odourant 10^-1, 0.3% CO2", "result": "significantly lower"},
      {"measurement": "time until responsiveness to CO2 restored to half-maximal levels", "setting": "after 3-second stimulus of odourant 10^-1, 0.5-second 0.3% CO2 every 30 seconds", "result": "~3", "unit": "min"},
      {"measurement": "inhibition of CO2 response across tested CO2 concentrations", "setting": "odourant 10^-1", "result": "complete inhibition"},
      {"measurement": "silencing of CO2-responsive neurons", "setting": "odourant at concentrations >10^-2, 0.3% CO2", "result": "silences CO2-responsive neurons completely"}
    ]},
    {"smiles": "CCCCCCO", "note": "[1-hexanol]", "values": [
      {"measurement": "effect of order of presentation on strength of CO2 response inhibition", "setting": "0.3% CO2", "result": "greater if it is presented subsequent to the CO2 stimulus"},
      {"measurement": "inhibition of CO2 response of ab1C neurons", "result": "inhibited CO2 response in a dose-dependent manner"},
      {"measurement": "silencing of CO2 neuron beyond the period of application", "result": "not observed"},
      {"measurement": "inhibition of CO2 response across tested CO2 concentrations", "setting": "odourant 10^-1", "result": "significant reduction"},
      {"measurement": "CO2 concentration at which complete inhibition occurs", "setting": "odourant 10^-1, lowest concentration tested", "result": 0.1, "unit": "% CO2"}
    ]}
  ]
}
